# In patent publication US9102617B2, “Antimicrobial agents” (Rutgers, The State University of New Jersey, priority 2010, dated 2015):
# Tested on: methicillin-sensitive Staphylococcus aureus (MSSA)
# Assay: Planktonic antibacterial broth microdilution assay (Test C), MIC vs MSSA
# Assay type: cell-based
# Settings: 37° C., growth read after 24 to 48 hours at OD 600 nm
# Description: (§1) Test C. Planktonic (Free-Living) Antibacterial Assay.
# (§2) Planktonic antibacterial activity can be determined using a broth microdilution assay in which log-phase bacteria are grown at 37° C. in appropriate medium containing two-fold serial dilutions of a compound to yield a final concentration ranging from 256 to 0.1 μg/ml. For determination of minimal inhibitory concentration (MIC) values, bacterial growth is monitored after 24 to 48 hours by measuring optical density at 600 nm. […] The minimal inhibitory concentration against methicillin-sensitive Staphylococcus aureus (MSSA) for each of the following representative compounds of the invention was determined to be less than 32 μg/ml.
row,Structure (SMILES),MIC [µg/mL]
1,"C[n+]1cccc2ccccc21.[I-] [Comparative Example A, reference compound]",> 64
2,"C[n+]1c(-c2ccccc2)ccc2ccccc21.[I-] [Comparative Example B, reference compound]",> 64
3,COc1cc(-c2cc3ccccc3[n+](C)c2)cc(-c2ccc(F)cc2)c1OC.[I-] [Example 4],16
4,N=C(N)NCCc1cccc2c(-c3ccc(C(F)(F)F)cc3)cccc12 [Example 55],≤ 8
5,CC(C)(C)c1ccc(-c2cccc3c(CC(=N)N)cccc23)cc1 [Example 56],≤ 8
6,COc1ccc(-c2ccc3c(-c4ccc(C(C)(C)C)cc4)cccc3c2CNC(=N)N)c(OC)c1OC [Example 58],≤ 8
7,CN(C)CCNCc1ccccc1-c1ccc2c(-c3ccc(C(C)(C)C)cc3)cccc2c1 [Example 59],≤ 8
8,"CN(C)Cc1ccccc1-c1ccc2c(-c3ccc(C(C)(C)C)cc3)cccc2c1 [Example 60, (2-(1-(4-t-butylphenyl)naphthalen-6-yl)phenyl)-N,N-dimethylmethanamine]",32
9,CNCc1ccccc1-c1ccc2c(-c3ccc(C(C)(C)C)cc3)cccc2c1 [Example 61],≤ 8
10,CC(C)(C)c1ccc(-c2cccc3cc(-c4cccc([N+](C)(C)C)c4)ccc23)cc1.[I-] [Example 65],≤ 8
11,C[N+](C)(C)c1cccc(-c2ccc3c(-c4cccc(-c5ccccc5)c4)cccc3c2)c1.[I-] [Example 67],≤ 8
12,C[N+](C)(C)c1ccc(-c2ccc3c(-c4cccc(-c5ccccc5)c4)cccc3c2)cc1.[I-] [Example 69],≤ 8
13,CN(C)Cc1cccc(-c2ccc3c(-c4cccc(-c5ccccc5)c4)cccc3c2)c1 [Example 71],≤ 8
14,C[N+](C)(C)Cc1cccc(-c2ccc3c(-c4cccc(-c5ccccc5)c4)cccc3c2)c1.[I-] [Example 72],≤ 8
15,C[N+](C)(C)c1cccc(-c2ccc3c(-c4ccc(F)cc4)cccc3c2)c1.[I-] [Example 74],≤ 8
16,C[N+](C)(C)c1ccc(-c2ccc3c(-c4ccc(F)cc4)cccc3c2)cc1.[I-] [Example 76],≤ 8
17,CC(C)(C)c1ccc(-c2cccc(-c3cccc4cc(-c5cccc([N+](C)(C)C)c5)ccc34)c2)cc1.[I-] [Example 78],≤ 8
18,C[N+](C)(C)c1cccc(-c2ccc3c(-c4cccc(-c5ccc(C(F)(F)F)cc5)c4)cccc3c2)c1.[I-] [Example 80],≤ 8
19,C[N+](C)(C)c1cccc(-c2ccc3c(-c4cc(-c5ccc(F)cc5)cc(-c5ccc(F)cc5)c4)cccc3c2)c1.[I-] [Example 82],≤ 8

row,Structure (SMILES),MIC [µg/mL]
1,COC(=O)c1ccc(-c2ccc3c(-c4ccc(C(C)(C)C)cc4)cccc3c2)c(C[N+](C)(C)C)c1.[I-] [Example 84],≤ 8
2,CN(C)Cc1cc(C(=O)O)ccc1-c1ccc2c(-c3ccc(C(C)(C)C)cc3)cccc2c1.Cl [Example 85],≤ 8
3,"CNCc1cc(C(=O)OC)ccc1-c1ccc2c(-c3ccc(C(C)(C)C)cc3)cccc2c1 [Example 86, methyl 4-(1-(4-t-butylphenyl)naphthalen-6-yl)-3-((methylamino)methyl)benzoate]",≤ 8
4,CNCc1cc(C(=O)O)ccc1-c1ccc2c(-c3ccc(C(C)(C)C)cc3)cccc2c1.Cl [Example 87],≤ 8
5,CC(C)(C)c1ccc(-c2cccc3cc(-c4ccc(C(=O)O)cc4CN)ccc23)cc1.Cl [Example 88],> 64
6,"COC(=O)c1ccc(-c2ccc3c(-c4ccc(C(C)(C)C)cc4)cccc3c2)c(CN)c1 [Example 89, methyl 4-(1-(4-t-butylphenyl)naphthalen-6-yl)-3-(aminomethyl)benzoate]",≤ 8
7,C[N+](C)(C)c1cccc(-c2ccc3c(-c4ccc(-c5ccccc5)cc4)cccc3c2)c1.[I-] [Example 93],≤ 8
8,C[N+](C)(C)c1ccc(-c2ccc3c(-c4ccc(-c5ccccc5)cc4)cccc3c2)cc1.[I-] [Example 95],≤ 8
9,C[N+](C)(C)c1cccc(-c2ccc3c(-c4ccc(C(F)(F)F)cc4)cccc3c2)c1.[I-] [Example 97],≤ 8
10,CC(C)(C)c1ccc(-c2cccc3cc(-c4ccc([N+](C)(C)C)cc4)ccc23)cc1.[I-] [Example 100],≤ 8
11,COC(=O)c1ccc(-c2ccc3c(-c4ccc(C(C)(C)C)cc4)cccc3c2)c(CNC(=N)N)c1 [Example 101],≤ 8
12,COc1ccc(CNC(=N)N)c(-c2ccc3c(-c4ccc(C(C)(C)C)cc4)cccc3c2)c1OC [Example 102],≤ 8
13,COc1cc(CC(=N)N)c(-c2ccc3c(-c4ccc(C(C)(C)C)cc4)cccc3c2)cc1OC [Example 103],≤ 8
14,N=C(N)NCc1ccccc1-c1ccc2c(-c3cccc(-c4ccccc4)c3)cccc2c1 [Example 105],≤ 8
15,COc1c(CCN)ccc(-c2ccc3c(-c4ccc(C(C)(C)C)cc4)cccc3c2)c1OC.Cl [Example 106],≤ 8
16,C[n+]1cc(-c2ccc(-c3ccccc3)cc2)c2ccccc2c1.[I-] [Example 107],≤ 8
17,C[n+]1cccc2cccc(-c3ccc(-c4ccccc4)cc3)c21.[I-] [Example 118],16
18,C[n+]1cccc2c(-c3ccc(-c4ccccc4)cc3)cccc21.[I-] [Example 122],≤ 8

# More lines, now with the values ahead:
row,MIC [µg/mL],Structure (SMILES)
1,≤ 8,COc1cc(-c2cc3ccccc3[n+](C)c2)cc(-c2ccc(-c3ccccc3)cc2)c1OC.[I-] [Example 2]
2,≤ 8,COc1cc(-c2cc3ccccc3[n+](C)c2)cc(-c2cccc(-c3ccc(F)cc3)c2)c1OC.[I-] [Example 6]
3,≤ 8,COc1cc(-c2cc3ccccc3[n+](C)c2)cc(-c2cc(-c3ccc(F)cc3)cc(-c3ccc(F)cc3)c2)c1OC.[I-] [Example 8]
4,≤ 8,COc1cc(-c2cc3ccccc3[n+](C)c2)cc(-c2ccc(C(C)(C)C)cc2)c1OC.[I-] [Example 11]
5,≤ 8,COc1cc2cc(-c3cc(OC)c(OC)c(-c4ccc(-c5ccccc5)cc4)c3)c[n+](C)c2cc1OC.[I-] [Example 13]
6,≤ 8,CCC[n+]1cc(-c2cc(OC)c(OC)c(-c3ccc(-c4ccccc4)cc3)c2)cc2cc(OC)c(OC)cc21.[I-] [Example 14]
7,≤ 8,COc1cc2cc(-c3cc(OC)c(OC)c(-c4ccc(C(C)(C)C)cc4)c3)c[n+](C)c2cc1OC.[I-] [Example 16]
8,≤ 8,COc1cc2cc(-c3cc(OC)c(OC)c(-c4ccc(C5CCCCC5)cc4)c3)c[n+](C)c2cc1OC.[I-] [Example 21]
9,≤ 8,CCC[n+]1cc(-c2cc(OC)c(OC)c(-c3ccc(C4CCCCC4)cc3)c2)cc2cc(OC)c(OC)cc21.[I-] [Example 22]
10,≤ 8,COc1cc(-c2cc3cc4c(cc3[n+](C(C)C)c2)OCO4)cc(-c2ccc(-c3ccccc3)cc2)c1OC.[I-] [Example 25]
11,≤ 8,COc1cc(-c2cc3cc4c(cc3[n+](C)c2)OCO4)cc(-c2ccc(C(C)(C)C)cc2)c1OC.[I-] [Example 26a]
12,≤ 8,COc1cc(-c2cc3ccc(OC)c(OC)c3[n+](C)c2)cc(-c2cccc(C(C)(C)C)c2)c1OC.[I-] [Example 28]
13,≤ 8,COc1cc(-c2cc3ccc(OC)c(OC)c3[n+](C)c2)cc(-c2ccc(C(C)(C)C)cc2)c1OC.[I-] [Example 30]
14,≤ 8,COc1cc(-c2cc3ccccc3nc2CN)cc(-c2ccc(C(C)(C)C)cc2)c1OC [Example 31]
15,≤ 8,C[n+]1cc(-c2cc(F)c(F)c(-c3ccc(-c4ccccc4)cc3)c2)cc2ccccc21.[I-] [Example 33]
16,≤ 8,C[n+]1cc(-c2cc(-c3ccccc3)cc(-c3ccccc3)c2)cc2ccccc21.[I-] [Example 35]
17,≤ 8,CC(C)(C)c1ccc(-c2cccc3c(CCN)cccc23)cc1 [Example 36]
18,≤ 8,CC(C)(C)c1ccc(-c2cccc3c(CCN=C(N)N)cccc23)cc1 [Example 37]
19,≤ 8,"CC(C)(C)c1ccc(-c2ccc(CCN)c3ccccc23)cc1 [Example 38, 2-(4-(4-(t-butyl)phenyl)naphthalen-1-yl)ethanamine]"
20,≤ 8,CC(C)(C)c1ccc(-c2ccc(CCN=C(N)N)c3ccccc23)cc1 [Example 39]
21,≤ 8,CC(C)(C)c1ccc(-c2ccc(CN=C(N)N)c3ccccc23)cc1 [Example 40]
22,≤ 8,COc1cc(C(F)(F)F)ccc1-c1cccc2c(CN=C(N)N)cccc12 [Example 43]
23,≤ 8,"COc1cc(C(F)(F)F)ccc1-c1cccc2c(CCN)cccc12 [Example 44, 2-(5-(2-Methoxy-4-(trifluoromethyl)phenyl)naphthalen-1-yl)ethanamine]"
24,≤ 8,COc1cc(C(F)(F)F)ccc1-c1cccc2c(CCN=C(N)N)cccc12 [Example 45]
25,≤ 8,NC(N)=NCc1cccc2c(-c3ccc(C4CC4)cc3)cccc12 [Example 46]
26,≤ 8,Cc1cc(C(F)(F)F)ccc1-c1cccc2c(CN=C(N)N)cccc12 [Example 47]
27,≤ 8,COc1cc2c(-c3ccc(-c4ccccc4)cc3)ccc([N+](C)(C)C)c2cc1OC.[I-] [Example 50]
28,≤ 8,"N=C(N)NCc1cccc2c(-c3ccc(Br)cc3)cccc12 [Example 51, 1-((5-(4-bromophenyl)naphthalen-1-yl)methyl)guanidine]"
29,≤ 8,N=C(N)NCc1cccc2c(-c3ccc(Cl)cc3)cccc12 [Example 52]
30,≤ 8,N=C(N)NCc1cccc2c(-c3ccc(C(F)(F)F)cc3)cccc12 [Example 53]

# Tested on: methicillin-resistant Staphylococcus aureus (MRSA)
# Assay: Planktonic antibacterial broth microdilution assay (Test C), MIC vs MRSA
# Assay type: cell-based
# Settings: broth microdilution, 37° C., growth read after 24 to 48 hours at OD 600 nm, read-out: MIC vs MRSA
# Description: as §1, §2
# Representative compounds of the invention were also tested against methicillin-resistant Staphylococcus aureus, vancomycin-resistant Enterococcus faecalis and Enterococcus faecium (VRE), vancomycin-sensitive Enterococcus faecalis and Enterococcus faecium (VSE).
row,Structure (SMILES),MIC [µg/mL]
1,CC(C)(C)c1ccc(-c2cccc3c(CC(=N)N)cccc23)cc1 [Example 56],≤ 8
2,CN(C)CCNCc1ccccc1-c1ccc2c(-c3ccc(C(C)(C)C)cc3)cccc2c1 [Example 59],≤ 8
3,CNCc1ccccc1-c1ccc2c(-c3ccc(C(C)(C)C)cc3)cccc2c1 [Example 61],≤ 8

# Results, then the compound that gave them:
row,MIC [µg/mL],Structure (SMILES)
1,≤ 8,COc1cc(-c2cc3ccccc3[n+](C)c2)cc(-c2ccc(C(C)(C)C)cc2)c1OC.[I-] [Example 11]
2,≤ 8,C[n+]1cc(-c2cc(-c3ccccc3)cc(-c3ccccc3)c2)cc2ccccc21.[I-] [Example 35]
3,≤ 8,CC(C)(C)c1ccc(-c2cccc3c(CCN)cccc23)cc1 [Example 36]
4,≤ 8,CC(C)(C)c1ccc(-c2cccc3c(CCN=C(N)N)cccc23)cc1 [Example 37]
